Here are results for one compound from ChEMBL document CHEMBL1142392, “Synthesis and analysis of a fluorinated product analogue as an inhibitor for 1-deoxy-D-xylulose 5-phosphate reductoisomerase” (Bioorg Med Chem Lett, 2008).

The nature of this assay: Inactivation of DXR.

Each structure is given as a SMILES string. Activity calls are given as the source filed them. No cut-off for these calls is given here.

On to `C[C@@](CO)(CF)[C@H](O)COP(=O)(O)O`, for which the result was Active.
